Assays:
[1] = system: MDA-MB-453; assay: drug sensitivity score (DSS), single agent (DSS (weighted AUC score)); higher = more sensitive (stronger viability decrease); extreme values may be limits of the assay; details: BLU9931 0 nM; 72 h
Summary of the method: (§1)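 Cells of the MDA-MB-453 line (2000 per well) were added in medium, with or without 100 nM final FGFR4 inhibitor, to 384-well plates predispensed with FIMM Oncology set compounds at five 10-fold dilutions covering a 10,000-fold range. After 72 h at 37 °C, 5% CO2, CellTiterGlo 2.0 read cellular ATP. Percent viability came from per-plate normalisation to control wells, and the drug sensitivity score was defined as a weighted area under a four-parameter logistic fit.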

[2] = system: MDA-MB-453; assay: drug sensitivity score (DSS), in combination with BLU9931 (DSS (weighted AUC score)); higher = more sensitive (stronger viability decrease); extreme values may be limits of the assay; details: BLU9931 100 nM; 72 h
Summary of the method: as §1

## CCC(C)(C)C(=O)O[C@H]1C[C@@H](C)C=C2C=C[C@H](C)[C@H](CC[C@@H]3C[C@@H](O)CC(=O)O3)[C@H]21 [Simvastatin]
[1]
  drug sensitivity score: 0
[2]
  drug sensitivity score: 0.1

## CO[C@H]1C[C@@H]2CC[C@@H](C)[C@@](O)(O2)C(=O)C(=O)N2CCCC[C@H]2C(=O)O[C@H]([C@H](C)C[C@@H]2CC[C@@H](O)[C@H](OC)C2)CC(=O)[C@H](C)/C=C(\C)[C@@H](O)[C@@H](OC)C(=O)[C@H](C)C[C@H](C)/C=C/C=C/C=C/1C [Sirolimus]
[1]
  drug sensitivity score: 5.1
[2]
  drug sensitivity score: 10.5

## COCCNCc1ccc(-c2cc3nccc(Oc4ccc(NC(=O)C5(C(=O)Nc6ccc(F)cc6)CC5)cc4F)c3s2)nc1 [Sitravatinib]
[1]
  drug sensitivity score: 0.6
[2]
  drug sensitivity score: 0

## Cc1c(C(=O)Nc2ccc(N3C[C@@H](C)O[C@@H](C)C3)nc2)cccc1-c1ccc(OC(F)(F)F)cc1 [Sonidegib]
[1]
  drug sensitivity score: 5.8
[2]
  drug sensitivity score: 1.4

## C=CCN(/C=C1/C(=O)O[C@H](COC)[C@@]2(C)C1=C(O)C(=O)C1=C2[C@H](OC(C)=O)C[C@]2(C)C(=O)CC[C@@H]12)CC=C [Sonolisib]
[1]
  drug sensitivity score: 0
[2]
  drug sensitivity score: 0

## CNC(=O)c1cc(Oc2ccc(NC(=O)Nc3ccc(Cl)c(C(F)(F)F)c3)cc2)ccn1 [Sorafenib]
[1]
  drug sensitivity score: 0
[2]
  drug sensitivity score: 0

## CN1CCN(c2nc(C3=C(c4c[nH]c5ccccc45)C(=O)NC3=O)c3ccccc3n2)CC1 [Sotrastaurin]
[1]
  drug sensitivity score: 2.5
[2]
  drug sensitivity score: 1

## C=CC(=O)Nc1cccc(Nc2nc(Nc3ccc(OCCOC)cc3)ncc2F)c1 [Spebrutinib]
[1]
  drug sensitivity score: 0.7
[2]
  drug sensitivity score: 0.9

## CC(C)n1cnc2c(NCCc3ccc(O)cc3)nc(-c3csc4ccccc34)nc21 [StemRegenin 1]
[1]
  drug sensitivity score: 0.3
[2]
  drug sensitivity score: 0.4

## CCN(CC)CCNC(=O)c1c(C)[nH]c(/C=C2\C(=O)Nc3ccc(F)cc32)c1C [Sunitinib]
[1]
  drug sensitivity score: 0.2
[2]
  drug sensitivity score: 0

## CC(C)(O)CC(=O)NCCn1ccc2ncnc(Nc3ccc(Oc4cccc(C(F)(F)F)c4)c(Cl)c3)c21 [TAK-285]
[1]
  drug sensitivity score: 5.4
[2]
  drug sensitivity score: 6.4

## CCS(=O)(=O)c1cccc(-c2cc(C(=O)NC3CCN(C)CC3)c(C)c3[nH]c4ncc(C)cc4c23)c1 [TAK-901]
[1]
  drug sensitivity score: 2.7
[2]
  drug sensitivity score: 3

## Cc1cccc(-c2[nH]c(CNc3ccccc3F)nc2-c2ccc3ncnn3c2)n1 [TEW-7197]
[1]
  drug sensitivity score: 5.2
[2]
  drug sensitivity score: 1.8

## Nc1nc(N)c2nc(-c3cccc(O)c3)c(-c3cccc(O)c3)nc2n1 [TG100-115]
[1]
  drug sensitivity score: 5.1
[2]
  drug sensitivity score: 5.9

## CC(C)Oc1ccc(-c2nn([C@@H](C)c3oc4ccc(F)cc4c(=O)c3-c3cccc(F)c3)c3ncnc(N)c23)cc1F [TGR-1202]
[1]
  drug sensitivity score: 0.7
[2]
  drug sensitivity score: 0

## Cc1cc(C(C)Nc2ccccc2)c2nc(N3CCOCC3)cc(=O)n2c1 (stereo unspecified) [TGX-221]
[1]
  drug sensitivity score: 2.6
[2]
  drug sensitivity score: 3.2

## Nc1nc(NC2CC2)cc(-c2cccc(Cl)c2Cl)n1 [TH588]
[1]
  drug sensitivity score: 2.4
[2]
  drug sensitivity score: 1.7

## Clc1ccccc1C(c1ccccc1)(c1ccccc1)n1cccn1 [TRAM-34]
[1]
  drug sensitivity score: 1.6
[2]
  drug sensitivity score: 0.6

## CC(=O)Nc1ccc(C(=O)Nc2ccccc2N)cc1 [Tacedinaline]
[1]
  drug sensitivity score: 1.3
[2]
  drug sensitivity score: 0.4

## C=CC[C@@H]1/C=C(\C)C[C@H](C)C[C@H](OC)[C@H]2O[C@@](O)(C(=O)C(=O)N3CCCC[C@H]3C(=O)O[C@H](/C(C)=C/[C@@H]3CC[C@@H](O)[C@H](OC)C3)[C@H](C)[C@@H](O)CC1=O)[C@H](C)C[C@@H]2OC [Tacrolimus]
[1]
  drug sensitivity score: 2.2
[2]
  drug sensitivity score: 0.8

## CN(C(=O)c1ccc(F)cc1C(F)(F)F)C1CCN(c2nnc(-c3ccnn3C)c3ccccc23)CC1 [Taladegib]
[1]
  drug sensitivity score: 1.6
[2]
  drug sensitivity score: 1.1

## Cn1ncnc1[C@H]1c2n[nH]c(=O)c3cc(F)cc(c23)N[C@@H]1c1ccc(F)cc1 [Talazoparib]
[1]
  drug sensitivity score: 1.7
[2]
  drug sensitivity score: 3.1

## C[C@@H]1CN(Cc2ccc(F)cc2)[C@@H](C)CN1C(=O)c1cc2c(C(=O)C(=O)N(C)C)cn(C)c2cc1Cl [Talmapimod]
[1]
  drug sensitivity score: 0
[2]
  drug sensitivity score: 0

## COc1cc(Nc2ncc(F)c(Nc3ccc4c(n3)NC(=O)C(C)(C)O4)n2)cc(OC)c1OC [Tamatinib]
[1]
  drug sensitivity score: 0
[2]
  drug sensitivity score: 0

## CC/C(=C(\c1ccccc1)c1ccc(OCCN(C)C)cc1)c1ccccc1 [Tamoxifen]
[1]
  drug sensitivity score: 5.3
[2]
  drug sensitivity score: 2.4

## COc1cc2c(N3CCN(C(=O)Nc4ccc(OC(C)C)cc4)CC3)ncnc2cc1OCCCN1CCCCC1 [Tandutinib]
[1]
  drug sensitivity score: 0
[2]
  drug sensitivity score: 0

## O[C@H]1CC[C@H](Nc2ncc3nc(Nc4c(F)cc(F)cc4F)n([C@H]4CCOC4)c3n2)CC1 [Tanzisertib]
[1]
  drug sensitivity score: 0
[2]
  drug sensitivity score: 0

## C[C@@H](C(=O)O)c1ccc(-c2ccccc2)c(F)c1 [Tarenflurbil]
[1]
  drug sensitivity score: 0
[2]
  drug sensitivity score: 0

## Cc1nc(-c2cn3c(n2)-c2ccc(-c4cnn(C(C)(C)C(N)=O)c4)cc2OCC3)n(C(C)C)n1 [Taselisib]
[1]
  drug sensitivity score: 17.9
[2]
  drug sensitivity score: 19.3

## COc1cccc2c1c(O)c(C(=O)N(C)c1ccc(C(F)(F)F)cc1)c(=O)n2C [Tasquinimod]
[1]
  drug sensitivity score: 2.9
[2]
  drug sensitivity score: 1.4

## CCN(c1cc(-c2ccc(CN3CCOCC3)cc2)cc(C(=O)NCc2c(C)cc(C)[nH]c2=O)c1C)C1CCOCC1 [Tazemetostat]
[1]
  drug sensitivity score: 2.1
[2]
  drug sensitivity score: 0

## CNC(=O)c1cc(COc2nnc(Nc3ccc(Cl)cc3)c3ccoc23)ccn1 [Telatinib]
[1]
  drug sensitivity score: 1.2
[2]
  drug sensitivity score: 0

## Cn1nnc2c(C(N)=O)ncn2c1=O [Temozolomide]
[1]
  drug sensitivity score: 0
[2]
  drug sensitivity score: 0

## CO[C@H]1C[C@@H]2CC[C@@H](C)[C@@](O)(O2)C(=O)C(=O)N2CCCC[C@H]2C(=O)O[C@H]([C@H](C)C[C@@H]2CC[C@@H](OC(=O)C(C)(CO)CO)[C@H](OC)C2)CC(=O)[C@H](C)/C=C(\C)[C@@H](O)[C@@H](OC)C(=O)[C@H](C)C[C@H](C)/C=C/C=C/C=C/1C [Temsirolimus]
[1]
  drug sensitivity score: 10.3
[2]
  drug sensitivity score: 14.8

## COc1cc([C@@H]2c3cc4c(cc3[C@@H](O[C@@H]3O[C@@H]5CO[C@@H](c6cccs6)O[C@H]5[C@H](O)[C@H]3O)[C@H]3COC(=O)[C@H]23)OCO4)cc(OC)c1O [Teniposide]
[1]
  drug sensitivity score: 0
[2]
  drug sensitivity score: 0

## CN1CCC(COc2cnc(-c3cccc(Cn4nc(-c5cccc(C#N)c5)ccc4=O)c3)nc2)CC1 [Tepotinib]
[1]
  drug sensitivity score: 0
[2]
  drug sensitivity score: 0

## COc1cc2c(Nc3ccc(Cl)c(Cl)c3F)ncnc2cc1OC[C@@H]1C[C@@H]2CN(C)C[C@@H]2C1 [Tesevatinib]
[1]
  drug sensitivity score: 7.6
[2]
  drug sensitivity score: 11.5

## O=C1CCC(N2C(=O)c3ccccc3C2=O)C(=O)N1 (stereo unspecified) [Thalidomide]
[1]
  drug sensitivity score: 0
[2]
  drug sensitivity score: 1

## Nc1nc2[nH]cnc2c(=S)[nH]1 [Thioguanine]
[1]
  drug sensitivity score: 10.4
[2]
  drug sensitivity score: 5.9

## O=c1sn(-c2cccc3ccccc23)c(=O)n1Cc1ccccc1 [Tideglusib]
[1]
  drug sensitivity score: 0
[2]
  drug sensitivity score: 0

## Cn1cncc1[C@@](N)(c1ccc(Cl)cc1)c1ccc2c(c1)c(-c1cccc(Cl)c1)cc(=O)n2C [Tipifarnib]
[1]
  drug sensitivity score: 8.3
[2]
  drug sensitivity score: 4.1

## CC#CC(=O)N1CC[C@@H](n2c(=O)n(-c3ccc(Oc4ccccc4)cc3)c3c(N)ncnc32)C1 [Tirabrutinib]
[1]
  drug sensitivity score: 5.7
[2]
  drug sensitivity score: 6.3

## O=C1NC(=O)[C@@H](c2cn3c4c(cccc24)CCC3)[C@@H]1c1c[nH]c2ccccc12 [Tivantinib]
[1]
  drug sensitivity score: 4.4
[2]
  drug sensitivity score: 2

## COc1cc2nccc(Oc3ccc(NC(=O)Nc4cc(C)on4)c(Cl)c3)c2cc1OC [Tivozanib]
[1]
  drug sensitivity score: 2.8
[2]
  drug sensitivity score: 1.4

## C[C@@H]1CCN(C(=O)CC#N)C[C@@H]1N(C)c1ncnc2[nH]ccc12 [Tofacitinib]
[1]
  drug sensitivity score: 0
[2]
  drug sensitivity score: 0

## CC[C@@]1(O)C(=O)OCc2c1cc1n(c2=O)Cc2cc3c(CN(C)C)c(O)ccc3nc2-1 [Topotecan]
[1]
  drug sensitivity score: 14.7
[2]
  drug sensitivity score: 12.5

## CN(C)CCOc1ccc(/C(=C(/CCCl)c2ccccc2)c2ccccc2)cc1 [Toremifene]
[1]
  drug sensitivity score: 6
[2]
  drug sensitivity score: 4.1

## CC(C)C[C@@H](C(=O)N[C@H](C(=O)OC1CCCC1)c1ccccc1)[C@H](O)C(=O)NO [Tosedostat]
[1]
  drug sensitivity score: 9.4
[2]
  drug sensitivity score: 10.1

## Cc1cc(Nc2cc(N3CCN(C)CC3)nc(Sc3ccc(NC(=O)C4CC4)cc3)n2)n[nH]1 [Tozasertib]
[1]
  drug sensitivity score: 2.5
[2]
  drug sensitivity score: 0

## CC(=O)Nc1cccc(-n2c(=O)n(C3CC3)c(=O)c3c(Nc4ccc(I)cc4F)n(C)c(=O)c(C)c32)c1 [Trametinib]
[1]
  drug sensitivity score: 5.7
[2]
  drug sensitivity score: 2.7

## CC1=C(/C=C/C(C)=C/C=C/C(C)=C/C(=O)O)C(C)(C)CCC1 [Tretinoin]
[1]
  drug sensitivity score: 0
[2]
  drug sensitivity score: 0

## NC(=S)N/N=C/c1ncccc1N [Triapine]
[1]
  drug sensitivity score: 0.1
[2]
  drug sensitivity score: 1.3

## O=c1[nH]c(=O)n([C@H]2C[C@H](O)[C@@H](CO)O2)cc1C(F)(F)F [Trifluridine]
[1]
  drug sensitivity score: 2.6
[2]
  drug sensitivity score: 1.2

Source: the supplement of paper PMC7224384
